Patent US10047092B2 (Janssen Pharmaceutica NV, priority 2013, dated 2018)

Target: P2X7 (Homo sapiens (Human), UniProt Q99572)
Experiment: P2X7 antagonism in human PBMCs (IL-1β release, LPS + Bz-ATP)
Type: cell-based
Details: LPS 30 ng/ml + 0.5 mM Bz-ATP; for remaining activity at 10 µM: P2X7, 10 μM test compound, read-out: PBMC 10 μM (% control); for PBMC 10 μM (% control): 10 μM test compound
Experimental: P2X7 Antagonism in Human Peripheral Blood Mononuclear Cells (PBMCs) and Mouse/Human Whole Blood.
Human blood was collected using a blood donor program. PBMCs were isolated from blood using a Ficoll density gradient technique. Briefly, blood was laid on Ficoll solution and centrifuged at RT for 20 minutes at 2000 rpm. The buffy layer (between red blood cells and plasma) was carefully collected by aspiration, washed with PBS and centrifuged again at 1500 rpm for 15 minutes. The resulting cell pellet was washed and plated on 96 well-plates for experiments. For the Mouse/Human Whole Blood experiments, 150 μl of either mouse or human blood was platted on 96 well-plates. Lipopolysaccharide (LPS) (30 ng/ml) was added to each well and incubated for 1 hour. Test compounds were then added and incubated for 30 minutes. The P2X7 agonist, 2′(3′)-O-(4-benzoylbenzoyl) adenosine 5′-triphosphate (Bz-ATP) was then added at a final concentration of 0.5 mM (PBMC) or 1 mM (blood). Cells were incubated for an additional 1.5 hours. At that point, supernatant was collected and stored for IL-1β assay using manufacturer's protocol for enzyme-linked immunosorbent assay (ELISA). Data was expressed as percent control, where control is defined as the difference in IL-113 release in LPS+Bz-ATP samples and LPS only samples. Data was plotted as response (% control) versus concentration to generate IC50 values. […] In Table 2, when the data cell has been left blank, it is intended to mean that the compound was not tested in that assay.

Chain of P2X7 (Q99572 whole entry): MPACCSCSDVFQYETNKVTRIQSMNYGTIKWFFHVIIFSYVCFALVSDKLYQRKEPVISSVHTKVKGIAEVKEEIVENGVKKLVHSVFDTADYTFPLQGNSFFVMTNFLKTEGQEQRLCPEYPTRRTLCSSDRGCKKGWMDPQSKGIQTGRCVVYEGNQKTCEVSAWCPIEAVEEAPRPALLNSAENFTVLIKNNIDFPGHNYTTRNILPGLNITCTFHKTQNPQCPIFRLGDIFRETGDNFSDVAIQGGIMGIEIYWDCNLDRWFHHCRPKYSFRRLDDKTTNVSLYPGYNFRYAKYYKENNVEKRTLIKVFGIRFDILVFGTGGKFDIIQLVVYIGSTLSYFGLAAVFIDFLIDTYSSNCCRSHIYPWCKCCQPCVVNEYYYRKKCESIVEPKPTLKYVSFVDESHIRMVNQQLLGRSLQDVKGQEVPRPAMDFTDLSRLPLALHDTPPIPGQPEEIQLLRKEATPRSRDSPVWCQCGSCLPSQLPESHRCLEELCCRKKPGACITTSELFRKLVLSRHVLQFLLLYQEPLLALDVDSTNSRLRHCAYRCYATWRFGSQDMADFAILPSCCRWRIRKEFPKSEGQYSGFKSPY

Row | SMILES | remaining activity at 10 µM [%] | PBMC 10 μM (% control)
1 | O=C1c2nnc(-c3ncccn3)n2C[C@@H](C2CC2)N1Cc1cccc(C(F)(F)F)c1Cl (single isomer, unassigned) [Example 65, (6R*)-7-[2-Chloro-3-(trifluoromethyl)benzyl]-6-cyclopropyl-3-pyrimidin-2-yl-6,7-dihydro[1,2,4]triazolo[4,3-a]pyrazin-8(5H)-one] | 15.9 | 
2 | CC(c1cccc(C(F)(F)F)c1Cl)N1C(=O)c2nnc(-c3cnccn3)n2C[C@@H]1C (stereo partly drawn) [Example 93] |  | 4.5
3 | C[C@H]1Cn2c(nnc2-c2cnccn2)C(=O)N1Cc1cccc(Cl)c1Cl [Example 13, (6S)-7-(2,3-Dichlorobenzyl)-6-methyl-3-pyrazin-2-yl-6,7-dihydro[1,2,4]triazolo[4,3-a]pyrazin-8(5H)-one] |  | 15.4
4 | O=C1c2nnc(-c3ncccn3)n2C[C@H](C2CC2)N1Cc1cccc(C(F)(F)F)c1Cl (single isomer, unassigned) [Example 66, (6S*)-7-[2-Chloro-3-(trifluoromethyl)benzyl]-6-cyclopropyl-3-pyrimidin-2-yl-6,7-dihydro[1,2,4]triazolo[4,3-a]pyrazin-8(5H)-one] | 20.7 | 
5 | CC[C@H]1Cn2c(nnc2-c2cnccn2)C(=O)N1Cc1cccc(C(F)(F)F)c1Cl [Example 71, (6S)-7-[2-Chloro-3-(trifluoromethyl)benzyl]-6-ethyl-3-pyrazin-2-yl-6,7-dihydro[1,2,4]triazolo[4,3-a]pyrazin-8(5H)-one] |  | 1.2
6 | C[C@H]1Cn2c(nnc2-c2cnccn2)C(=O)N1Cc1cccc(C(F)(F)F)c1Cl [Example 16, (6S)-7-[2-Chloro-3-(trifluoromethyl)benzyl]-6-methyl-3-pyrazin-2-yl-6,7-dihydro[1,2,4]triazolo[4,3-a]pyrazin-8(5H)-one] |  | 13.4
